Test results reported in BindingDB's records for patent US10981904 (Cancer Research Technology, 2021).

Molecular target: T1, Glutaminase kidney isoform, mitochondrial [63-669] (Homo sapiens, UniProt O94925)
T1 sequence (O94925 whole entry): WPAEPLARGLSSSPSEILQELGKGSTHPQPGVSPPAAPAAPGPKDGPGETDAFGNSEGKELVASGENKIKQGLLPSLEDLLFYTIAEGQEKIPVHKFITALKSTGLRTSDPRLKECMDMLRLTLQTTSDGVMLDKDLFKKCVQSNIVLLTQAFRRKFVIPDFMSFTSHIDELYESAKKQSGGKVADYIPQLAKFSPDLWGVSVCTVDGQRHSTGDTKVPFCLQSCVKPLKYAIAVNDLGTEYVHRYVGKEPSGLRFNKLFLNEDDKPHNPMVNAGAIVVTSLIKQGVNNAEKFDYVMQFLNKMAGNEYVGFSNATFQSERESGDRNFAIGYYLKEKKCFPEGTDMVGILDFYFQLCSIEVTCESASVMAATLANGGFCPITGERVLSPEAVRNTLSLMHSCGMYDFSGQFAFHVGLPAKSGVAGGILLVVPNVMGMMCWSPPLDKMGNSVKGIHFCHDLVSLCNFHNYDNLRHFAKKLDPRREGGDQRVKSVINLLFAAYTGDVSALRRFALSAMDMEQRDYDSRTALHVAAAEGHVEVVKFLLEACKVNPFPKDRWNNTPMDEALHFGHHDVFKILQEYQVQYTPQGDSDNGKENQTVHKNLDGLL
Test: GLS Enzyme Potency Assay
Method: A Glutamate Oxidase/AmplexRed coupled assay was used to measure the ability of compounds to bind to and inhibit the activity of GLS1 in vitro. […] GLS1 was diluted to 2× working concentration and incubated at room temperature to allow the tetrameric/dimeric forms to reach steady state. Assay measurements were performed in buffer comprising 50 mM TRIS pH 7.8, 100 mM NaPO4, pH 7.8, 0.001% v/v Tween20. […] DMSO concentration was maintained at 2% by back filling with DMSO solution. […] 3 μL of 100 mM glutamine diluted in assay buffer was then added and the reaction incubated at room temperature for 60 minutes. […] An artefact version of the assay where the 6His tagged GLS protein and glutamine were replaced with assay buffer was also used to rule out non specific effects on the assay components.

Row | IC50 [µM] | SMILES
1 | 0.192 | COC1CN(c2cc([C@H](OC)C(=O)Nc3nnc(N[C@@H]4CCN(c5cccnn5)C4)s3)ccc2F)C1 [US10981904, Example 7(b)]
2 | 1.84 | CO[C@H](C(=O)Nc1nnc(N[C@@H]2CCN(c3cccnn3)C2)s1)c1ccccc1C1COC1 [US10981904, Example 25]
